Data reported in US20250171462A1 (NICO Therapeutics, Inc., priority 2022, published 2025).
pIC50: −log10 of the molar value. Read-outs that look alike come from different tables or passages of the source.

Target: T1, full-length SARM1 (FL-SARM1) (Homo sapiens, UniProt Q6SZW1)
T1 sequence (Q6SZW1 28-724): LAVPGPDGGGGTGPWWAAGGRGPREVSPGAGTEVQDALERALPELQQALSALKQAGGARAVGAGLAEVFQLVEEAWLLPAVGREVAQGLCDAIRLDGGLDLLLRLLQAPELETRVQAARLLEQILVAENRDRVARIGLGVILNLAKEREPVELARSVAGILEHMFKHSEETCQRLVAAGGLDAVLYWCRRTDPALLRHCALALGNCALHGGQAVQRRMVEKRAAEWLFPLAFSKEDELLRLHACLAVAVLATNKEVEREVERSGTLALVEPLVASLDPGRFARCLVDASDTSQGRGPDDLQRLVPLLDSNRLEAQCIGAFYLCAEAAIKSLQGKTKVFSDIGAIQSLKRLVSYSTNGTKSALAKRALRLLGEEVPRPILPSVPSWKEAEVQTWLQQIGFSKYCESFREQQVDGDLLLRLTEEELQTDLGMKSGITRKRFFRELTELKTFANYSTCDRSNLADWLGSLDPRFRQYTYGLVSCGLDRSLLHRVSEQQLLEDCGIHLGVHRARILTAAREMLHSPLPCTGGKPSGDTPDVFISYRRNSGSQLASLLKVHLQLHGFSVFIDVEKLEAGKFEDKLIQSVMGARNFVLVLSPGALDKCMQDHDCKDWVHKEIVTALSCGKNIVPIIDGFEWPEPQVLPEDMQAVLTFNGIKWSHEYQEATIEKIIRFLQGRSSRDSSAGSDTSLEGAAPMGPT
Assay: FL-SARM1 cellular lysate assay (NAD/NADH-Glo detection of remaining NAD+, NMN-activated)
Conditions: for IC50: Activity (μM) (IC50)

[1] = read-out: Activity (IC50 class), 11 point curve
[2] = Activity (IC50 class), 11 point curve

Procedure: Preparation of full-length SARM1 (FL-SARM1) lysate: HEK293T cells (ATCC: CRL-3216) were grown on 150 mm TC-treated dishes to 80-90% confluency in complete DMEM (DMEM (Thermo Fisher: 11965175) supplemented with 10% HI—FBS (VWR: 10802-772), 1× Pen/Strep (Thermo Fisher: 15140122), 1×NEAA (Thermo Fisher: 1140050), 1× glutamax (Thermo Fisher: 35050061), and 1 mM sodium pyruvate (Thermo Fisher: 11360070)) at 37° C. and 5% CO2. One hour prior to transfection, the media was replaced with fresh, 37° C. complete DMEM (20 mL per one 150 mm dish) supplemented with additional 10 mM glucose (Alfa Aesar AAJ60067EQE). Per one 150 mm dish, 30 μg FL-SARM1 (SEQ. ID. 1; cloned in-house) plasmid was dissolved in 1 mL DMEM at ambient temperature and were mixed by inverting the tube 8-10 times. 90 μL of GenJet™ in vitro DNA transfection reagent (Ver2) was dissolved in 1 mL DMEM at ambient temperature and were mixed by inverting the tube 8-10 times. The plasmid and transfection agent solutions were combined, mixed by 8-10 inversions and incubated for 10 minutes at ambient temperature. 2 mL of this transfection mixture was added to each dish containing HEK293T cells as prepared above followed by a gentle mixing of 4-5 horizontal rotations. The dishes were incubated at 37° C. and 5% CO2 for 24 h. The dishes were removed from the incubator, the medium was aspirated and the cells were scraped off using cell scrapers in ice-cold 1×PBS (5 mL/dish, Thermo Fisher Scientific 10010023). The collected cells were centrifuged at 300 g for 5 minutes at 4° C. The supernatant was aspirated and the pellet was frozen at −80° C. until needed. The cell pellet from 30 dishes was dissolved in 30 mL 1×PBS supplemented with 4 tablets of Complete, Mini EDTA-free protease inhibitor cocktail at 4° C. This mixture was sonicated on ice for 10 minutes at 50% amplitude with a 1 second on/1 second off interval using a Model 120 sonicator (Thermo Fisher Scientific, FB120110). The lysate was centrifuged at 16000 g for 10 minutes at 4° C.
To a white 384-well Proxiplate (PerkinElmer, PE-6008280) was added 50 nL/well of a DMSO solution containing test compounds followed by 7.5 μL/well of a 0.067 mg/mL solution of SARMi cellular lysate in reaction buffer (DPBS containing CHAPSO (0.1%) and fatty acid free BSA (0.032%)). The plate was centrifuged for 1 minute at 1000 RPM and then placed in an incubator at 23° C. for 15 minutes. To the wells were added 2.5 μL/well of a solution containing 40 M NAD^+ and 4 mM nicotinamide mononucleotide (NMN) in reaction buffer. The plate was centrifuged for 1 min at 1000 RPM, the plate was sealed and placed in an incubator at 23° C. for 3.5 hours before adding 3.5 μL/well of NAD/NADH-Glo™ solution (preparation as described by Promega using the extended detection protocol). The plate was centrifuged for 1 minute at 1000 RPM and then incubated at 23° C. for 20 minutes. 1 μL/well of a 3.625 mM solution of menadione in DMSO was added and the plate was centrifuged for 1 minute at 1000 RPM. Relative light units (RLU) were recorded using an Envision plate reader at a height of 6.5 mm.
IC50 values were calculated from an 11 point curve using ½ log dilutions using a four-parameter logistic regression curve fit.

SMILES	IC50 (11 point curve) [µM]	pIC50 [1]	pIC50 [2]
COC(C)[C@@]12CC(C[C@@H](C)C1)N2C(=O)Nc1ccc(C)c(-c2ncc(F)cn2)c1 (stereo partly drawn) [Example 190, cis-N-(3-(5-fluoropyrimidin-2-yl)-4-methylphenyl)-1-(1-methoxyethyl)-3-methyl-6-azabicyclo[3.1.1]heptane-6-carboxamide]	0.2	6.00 to 10.00	–
Cc1cc(F)c(NC(=O)N2C3CCCC2C3)cc1-c1ccccn1 [Example 43, N-(2-fluoro-4-methyl-5-(pyridin-2-yl)phenyl)-6-azabicyclo[3.1.1]heptane-6-carboxamide]	0.2	6.00 to 10.00	–
Cc1ccc(NC(=O)[C@H]2C[C@@H]2C2CC2)cc1-c1cccnn1 (racemic) [Example 283, trans-2-cyclopropyl-N-(4-methyl-3-pyridazin-3-ylphenyl)cyclopropane-1-carboxamide]	11	–	< 5.00
Cc1ccc(-c2cc(NC(=O)N3[C@@H]4C[C@@H](C)C[C@H]3C4)ccc2C)nn1 [Example 242, cis-3-methyl-N-[4-methyl-3-(6-methylpyridazin-3-yl)phenyl]-6-azabicyclo[3.1.1]heptane-6-carboxamide]	0.07	6.00 to 10.00	–
CO[C@H]1CCCN(C(=O)Nc2ccc(C(F)(F)F)c(-c3ncc(F)cn3)c2)CC1 [Example 307, (S)-N-(3-(5-fluoropyrimidin-2-yl)-4-(trifluoromethyl)phenyl)-4-methoxyazepane-1-carboxamide]	13	–	< 5.00
CCOC(C)[C@@]12CC(C[C@@H](C)C1)N2C(=O)Nc1ccc(C)c(-c2ncc(F)cn2)c1 (single isomer, unassigned) [Example 188, cis-1-(1-ethoxyethyl)-N-(3-(5-fluoropyrimidin-2-yl)-4-methylphenyl)-3-methyl-6-azabicyclo[3.1.1]heptane-6-carboxamide]	0.003	6.00 to 10.00	–
Cc1cnc(-c2cc(NC(=O)N3C4CCCC3C4)ccc2C)nn1 [Example 180, N-(4-methyl-3-(6-methyl-1,2,4-triazin-3-yl)phenyl)-6-azabicyclo[3.1.1]heptane-6-carboxamide]	0.9	6.00 to 10.00	–
COC(C)[C@@]12CC(C[C@@H](C)C1)N2C(=O)Nc1ccc(C)c(-c2ncc(F)cn2)c1 (single isomer, unassigned) [Example 191, cis-N-(3-(5-fluoropyrimidin-2-yl)-4-methylphenyl)-1-(1-methoxyethyl)-3-methyl-6-azabicyclo[3.1.1]heptane-6-carboxamide]	0.0009	6.00 to 10.00	–
C[C@H]1CC1c1ccc(NC(=O)[C@@H]2CC2(F)F)cc1-c1ccccn1 (stereo partly drawn) [Example 127, (1S)-2,2-difluoro-N-[4-[trans-2-methylcyclopropyl]-3-pyridin-2-ylphenyl]cyclopropane-1-carboxamide]	5.6	–	5.00 to 6.00
Cc1cc(F)c(NC(=O)N2[C@@H]3C[C@@H](C)C[C@H]2C3)cc1-c1nccnn1 [Example 240, cis-N-[2-fluoro-4-methyl-5-(1,2,4-triazin-3-yl)phenyl]-3-methyl-6-azabicyclo[3.1.1]heptane-6-carboxamide]	0.09	6.00 to 10.00	–
CCOC(C)[C@@]12CC(C[C@@H](C)C1)N2C(=O)Nc1ccc(C)c(-c2ncc(F)cn2)c1 (single isomer, unassigned) [Example 189, cis-1-(1-ethoxyethyl)-N-(3-(5-fluoropyrimidin-2-yl)-4-methylphenyl)-3-methyl-6-azabicyclo[3.1.1]heptane-6-carboxamide]	1.9	–	5.00 to 6.00
Cc1ccc(NC(=O)N2CC3CC3(C(F)(F)F)C2)cc1-c1ccccn1 (stereo not drawn) [Example 97, N-(4-methyl-3-pyridin-2-ylphenyl)-1-(trifluoromethyl)-3-azabicyclo[3.1.0]hexane-3-carboxamide]	11	–	< 5.00
Cc1ccc(NC(=O)[C@@H]2CC2(F)F)cc1-c1cccc(C#N)n1 [Example 159, (1S)-N-[3-(6-cyanopyridin-2-yl)-4-methylphenyl]-2,2-difluorocyclopropane-1-carboxamide]	9.8	–	5.00 to 6.00
Cc1ccc(NC(=O)[C@H]2C[C@@H]3[C@H](C2)C3(F)F)cc1-c1cccnn1 [Example 177, cis-6,6-difluoro-N-(4-methyl-3-(pyridazin-3-yl)phenyl)bicyclo[3.1.0]hexane-3-carboxamide]	23	–	< 5.00
Cc1ccc(NC(=O)CC2CCC2)cc1-c1ccc(F)cn1 [Example 164, 2-cyclobutyl-N-[3-(5-fluoropyridin-2-yl)-4-methylphenyl]acetamide]	1.4	–	5.00 to 6.00
Cc1ccc(NC(=O)N2[C@@H]3C[C@@H](C)C[C@@]2(COC(F)F)C3)cc1-c1ncc(F)cn1 (racemic) [Example 227, cis-1-(difluoromethoxymethyl)-N-[3-(5-fluoropyrimidin-2-yl)-4-methylphenyl]-3-methyl-6-azabicyclo[3.1.1]heptane-6-carboxamide]	0.02	6.00 to 10.00	–
Cc1ccc(NC(=O)N2CCC3CC3CC2)cc1-c1ncc(F)cn1 (stereo not drawn) [Example 300, N-(3-(5-fluoropyrimidin-2-yl)-4-methylphenyl)-4-azabicyclo[5.1.0]octane-4-carboxamide]	1.2	–	5.00 to 6.00
Cc1ccc(NC(=O)N2CC3CC2Cc2ccccc23)cc1-c1ccccn1 (stereo not drawn) [Example 21, N-(4-methyl-3-(pyridin-2-yl)phenyl)-4,5-dihydro-1H-1,4-methanobenzo[d]azepine-3(2H)-carboxamide]	2.5	–	5.00 to 6.00
Cc1cc(NC(=O)N2C3CCCC2C3)cc(-c2ccccn2)c1C [Example 71, N-(3,4-dimethyl-5-(pyridin-2-yl)phenyl)-6-azabicyclo[3.1.1]heptane-6-carboxamide]	10.9	–	< 5.00
Cc1cc(F)c(NC(=O)N2CCOc3cccnc3C2C)cc1-c1cccnn1 (stereo not drawn) [Example 182, N-(2-fluoro-4-methyl-5-(pyridazin-3-yl)phenyl)-5-methyl-2,3-dihydropyrido[2,3-f][1,4]oxazepine-4(5H)-carboxamide]	6	–	5.00 to 6.00
O=C(Nc1ccc(C(F)(F)F)c(-c2ccc(F)cn2)c1)N1C2CCCC1C2 [Example 56, N-(3-(5-fluoropyridin-2-yl)-4-(trifluoromethyl)phenyl)-6-azabicyclo[3.1.1]heptane-6-carboxamide]	2.2	–	5.00 to 6.00
Cc1ccc(NC(=O)[C@@H]2CC[C@@H](C3CC3)N2c2ccccn2)cc1-c1ncc(F)cn1 (racemic) [Example 274, trans-5-cyclopropyl-N-(3-(5-fluoropyrimidin-2-yl)-4-methylphenyl)-1-(pyridin-2-yl)pyrrolidine-2-carboxamide]	1.2	–	5.00 to 6.00
Cc1ccc(NC(=O)N2C3C[C@@H](C)C[C@H]2C3)cc1-c1cc(Cl)cnn1 [Example 216, cis-N-(3-(5-chloropyridazin-3-yl)-4-methylphenyl)-3-methyl-6-azabicyclo[3.1.1]heptane-6-carboxamide]	0.01	6.00 to 10.00	–
Cc1ccc(NC(=O)[C@H]2[C@H](C)OCCN2c2ccccn2)cc1-c1ncc(F)cn1 [Example 270, (2S,3R)-N-(3-(5-fluoropyrimidin-2-yl)-4-methylphenyl)-2-methyl-4-(pyridin-2-yl)morpholine-3-carboxamide]	9.5	–	5.00 to 6.00
Cc1ccc(NC(=O)[C@H]2C[C@H]3C[C@H]3N2c2ncccn2)cc1-c1ncccn1 [Example 266, (1R,3R,5R)-N-(4-methyl-3-pyrimidin-2-ylphenyl)-2-pyrimidin-2-yl-2-azabicyclo[3.1.0]hexane-3-carboxamide]	4.2	–	5.00 to 6.00
Cc1ccc(NC(=O)N2C3CCCC2C3)cc1-c1ncc(F)cn1 [Example 55, N-(3-(5-fluoropyrimidin-2-yl)-4-methylphenyl)-6-azabicyclo[3.1.1]heptane-6-carboxamide]	0.2	6.00 to 10.00	–
Cc1ccc(NC(=O)C2C3CCC2(c2ccccn2)C3)cc1-c1ncc(F)cn1 (mixture of isomers) [Example 318]	1.5	–	5.00 to 6.00
Cc1ccc(NC(=O)N2CCCC2c2ncccn2)cc1-c1ccccn1 (racemic) [Example 91, N-(4-methyl-3-pyridin-2-ylphenyl)-2-pyrimidin-2-ylpyrrolidine-1-carboxamide]	16	–	< 5.00
Cc1ccc(NC(=O)N2[C@@H]3C[C@@H](C)C[C@H]2C3)cc1-c1nccc(C2CC2)n1 [Example 236, cis-N-[3-(4-cyclopropylpyrimidin-2-yl)-4-methylphenyl]-3-methyl-6-azabicyclo[3.1.1]heptane-6-carboxamide]	0.7	6.00 to 10.00	–
Cc1c(F)cc(NC(=O)N2C3CCCC2C3)cc1-c1ccccn1 [Example 69, N-(3-fluoro-4-methyl-5-(pyridin-2-yl)phenyl)-6-azabicyclo[3.1.1]heptane-6-carboxamide]	0.08	6.00 to 10.00	–
